For one compound, bioavailability results are on record in US20230414499A1, “SUBLINGUAL FILM DOSAGE OF RASAGILINE OR PHARMACEUTICALLY ACCEPTABLE SALT THEREOF, AND PREPARATION METHOD THEREFOR AND USE THEREOF” (priority 2020, published 2023).

Structures can show the parent of a compound that is named as a salt. Where two headings read alike, the source gives them in different places.

Data set [1] in a line: Pharmacokinetic test of Beagle dogs. Type of data set: in vivo. The conditions noted are these: both sexes, dog, plasma, po, intragastric administration of solution, 2 mg, n=4, read-out: Absolute bioavailability.
Description: Sublingual film and intragastric administration: A two-period double crossover test was adopted, and the washout period was 1 week.
The dogs were fasted for 16 hours before administration and had free access to water. After 4 hours of administration, the dogs had free access to water, and food was administered. 2 mL of blood was collected from the forelimb or hindlimb vein before administration (0 h) and 0.033 h, 0.083 h, 0.167 h, 0.25 h, 0.333 h, 0.5 h, 0.75 h, 1 h, 1.5 h, 2 h, 3 h, 4 h, 6 h after administration, and placed in heparin sodium anticoagulation tubes. The collected blood samples were centrifuged immediately (1006×g, 10 min), separated to obtain the plasma and stored at −20° C.
For data set [2] the following is noted: after oral administration; cited from earlier work.

Broadly, the bioavailability is dose-corrected exposure relative to a reference, in per cent.

In the case of `C#CCN[C@@H]1CCc2ccccc21` [Rasagiline mesylate], the results for the bioavailability in data set [1] and in data set [2] were 11.8% and “about 36%”, respectively.
